Structures can show the parent of a compound that is named as a salt.
Tests used:
NS5B 1a = target: T1, NS5B 1a (Hepatitis C virus genotype 1a, UniProt P27958); assay: Assay of enzyme (HCV polymerase) inhibitory activity, NS5B 1a; assay type: biochemical; details: HCV polymerase NS5B 1a; [3H]UTP incorporation, 25° C., 90 min
T1 construct: NS5B 1a

NS5B 1b = target: T2, NS5B 1b (Hepatitis C virus genotype 1b, UniProt P26663); assay: Assay of enzyme (HCV polymerase) inhibitory activity, NS5B 1b; assay type: biochemical
T2 construct: a region encoding NS5B (J Virol 1991 March, 65(3), 1105-13, 544 amino acids after deletion of 47 amino acids on the C-terminal); 6 His (C); made in house; host or cells: Escherichia coli
T2 sequence (P26663 2420-2963): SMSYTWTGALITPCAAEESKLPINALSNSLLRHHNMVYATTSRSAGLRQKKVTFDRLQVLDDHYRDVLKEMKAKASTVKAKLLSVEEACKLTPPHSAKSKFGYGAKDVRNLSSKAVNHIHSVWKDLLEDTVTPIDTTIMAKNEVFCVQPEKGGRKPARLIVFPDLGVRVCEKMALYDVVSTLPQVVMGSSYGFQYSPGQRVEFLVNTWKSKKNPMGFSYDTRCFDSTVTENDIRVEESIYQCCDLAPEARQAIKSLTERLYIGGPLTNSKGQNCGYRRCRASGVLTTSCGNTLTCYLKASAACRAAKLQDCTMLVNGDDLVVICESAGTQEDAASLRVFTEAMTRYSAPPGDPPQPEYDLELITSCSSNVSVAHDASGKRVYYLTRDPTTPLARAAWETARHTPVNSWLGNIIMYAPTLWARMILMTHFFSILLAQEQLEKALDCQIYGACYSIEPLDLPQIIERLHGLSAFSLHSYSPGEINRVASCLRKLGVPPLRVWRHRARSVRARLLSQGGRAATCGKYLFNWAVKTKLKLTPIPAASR
Description: The evaluation of the HCV polymerase inhibitory activity of the compound of the present invention is explained in the following. This polymerase is an enzyme coded for by the non-structural protein region called NS5B on the genome RNA of HCV (EMBO J., 15:12-22, 1996).
i) Preparation of enzyme (HCV polymerase)
Using, as a template, a cDNA clone corresponding to the full length genome RNA of HCV BK strain obtained from the blood of a patient with hepatitis C, a region encoding NS5B (J Virol 1991 March, 65(3), 1105-13, 544 amino acids after deletion of 47 amino acids on the C-terminal) was amplified by PCR. The objective gene was prepared by adding a 6 His tag {base pair encoding 6 continuous histidine (His)} to the 3′ end thereof and transformed to Escherichia coli. The Escherichia coli capable of producing the objective protein was cultured. The obtained cells were suspended in a buffer solution and crushed in a microfluidizer. The supernatant was obtained by centrifugation and applied to various column chromatographys {mono-S, Sephacryl S-200 (Pharmacia)}, inclusive of metal chelate chromatography, to give a standard enzyme product.
ii) Synthesis of Substrate RNA
Using a synthetic primer designed based on the sequence of HCV genomic 3′ untranslated region, a DNA fragment (148 bp) containing polyU and 3′X sequence was entirely synthesized and cloned into plasmid pBluescript SK II(+) (Stratagene). The cDNA encoding full length NS5B, which was prepared in i) above, was digested with restriction enzyme KpnI to give a cDNA fragment containing the nucleotide sequence of from the restriction enzyme cleavage site to the termination codon. This cDNA fragment was inserted into the upstream of 3′ untranslated region of the DNA in pBluescript SK II(+) and ligated. The about 450 bp inserted DNA sequence was used as a template in the preparation of substrate RNA. This plasmid was cleaved immediately after the 3′X sequence, linearized and purified by phenol-chloroform treatment and ethanol precipitation to give DNA.
RNA was synthesized (37° C., 3 hr) by run-off method using this purified DNA as a template, a promoter of pBluescript SK II(+), MEGAscript RNA synthesis kit (Ambion) and T7 RNA polymerase. DNase I was added and the mixture was incubated for 1 hr. The template DNA was removed by decomposition to give a crude RNA product. This crude product was treated with phenol-chloroform and purified by ethanol precipitation to give the objective substrate RNA.
This RNA was applied to formaldehyde denaturation agarose gel electrophoresis to confirm the quality thereof and preserved at −80° C. iii) Assay of enzyme (HCV polymerase) inhibitory activity A test substance (compound of the present invention) and a reaction mixture (30 μl) having the following composition were reacted at 25° C. for 90 min.
10% Trichloroacetic acid at 4° C. and 1% sodium pyrophosphate solution (150 μl) were added to this reaction mixture to stop the reaction. The reaction mixture was left standing in ice for 15 min to insolubilize RNA. This RNA was trapped on a glass filter (Whatman GF/C and the like) upon filtration by suction. This filter was washed with a solution containing 1% trichloroacetic acid and 0.1% sodium pyrophosphate, washed with 90% ethanol and dried. A liquid scintillation cocktail (Packard) was added and the radioactivity of RNA synthesized by the enzyme reaction was measured on a liquid scintillation counter.
The HCV polymerase inhibitory activity (IC50) of the compound of the present invention was calculated from the values of radioactivity of the enzyme reaction with and without the 20 test substance. […]

T1 sequence (P27958 2421-3011): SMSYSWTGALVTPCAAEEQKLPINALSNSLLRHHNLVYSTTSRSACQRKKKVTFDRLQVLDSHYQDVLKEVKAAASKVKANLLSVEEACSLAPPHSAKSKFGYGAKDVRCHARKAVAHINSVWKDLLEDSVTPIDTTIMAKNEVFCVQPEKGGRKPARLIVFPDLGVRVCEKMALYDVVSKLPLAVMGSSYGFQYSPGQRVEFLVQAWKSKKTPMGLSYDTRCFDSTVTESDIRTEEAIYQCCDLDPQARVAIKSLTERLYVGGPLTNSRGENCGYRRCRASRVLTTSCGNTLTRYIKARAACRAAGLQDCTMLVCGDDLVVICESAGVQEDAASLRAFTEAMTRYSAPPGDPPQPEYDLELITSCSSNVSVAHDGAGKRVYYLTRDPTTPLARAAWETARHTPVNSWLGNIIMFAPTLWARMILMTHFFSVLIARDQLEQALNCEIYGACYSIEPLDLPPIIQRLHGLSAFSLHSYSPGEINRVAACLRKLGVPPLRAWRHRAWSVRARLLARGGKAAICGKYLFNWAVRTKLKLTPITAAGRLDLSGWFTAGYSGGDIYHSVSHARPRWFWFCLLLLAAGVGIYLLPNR

| SMILES | IC50 (NS5B 1a) [nM] | IC50 (NS5B 1b) [nM] |
| --- | --- | --- |
| CC(C)(C)OC(=O)N1CCN(CCN2CCn3c(c(C4CCCCC4)c4sc(C(=O)O)cc43)-c3ccccc32)CC1 [Example 11, 6-[2-(4-tert-butoxycarbonylpiperazin-1-yl)ethyl]-11-cyclohexyl-5,6-dihydro-4H-1-thia-3b,6-diazabenzo[e]cyclopenta[a]azulene-2-carboxylic acid hydrochloride] | 10 to 100 | 10 to 100 |
| CCOc1ccc2c(c1)OCCn1c-2c(C2CCCCC2)c2sc(C(=O)NC3(C(=O)Nc4ccc(/C=C/C(=O)O)cc4)CCC3)cc21 [Example 43, (E)-3-[4-({1-[(11-cyclohexyl-8-ethoxy-4,5-dihydro-6-oxa-1-thia-3b-azabenzo[e]cyclopenta[a]azulene-2-carbonyl)amino]cyclobutanecarbonyl}amino)phenyl]acrylic acid] | 10 to 100 | 10 to 100 |
| Cc1ccc2c(c1)N(CCN1CCN(C(=O)OC(C)(C)C)CC1)CCn1c-2c(C2CCCCC2)c2sc(C(=O)O)cc21 [Example 33, 6-[2-(4-tert-butoxycarbonylpiperazin-1-yl)ethyl]-11-cyclohexyl-8-methyl-5,6-dihydro-4H-1-thia-3b,6-diazabenzo[e]cyclopenta[a]azulene-2-carboxylic acid hydrochloride] | 10 to 100 | 10 to 100 |
| CS(=O)(=O)c1ccc(N2CCOCC2)c(COc2ccc3c(c2)OCCn2c-3c(C3CCCCC3)c3sc(C(N)=O)cc32)c1 [Example 4, 11-cyclohexyl-8-[5-methanesulfonyl-2-(morpholin-4-yl)benzyloxy]-4,5-dihydro-6-oxa-1-thia-3b-azabenzo[e]cyclopenta[a]azulene-2-carboxamide] | 10 to 100 | < 10 |
| COCC[C@@H]1CCCN(CCN2CCn3c(c(C4CCCCC4)c4sc(C(=O)O)cc43)-c3ccccc32)C1 [Example 23, (S)-11-cyclohexyl-6-{2-[3-(2-methoxyethyl)piperidin-1-yl]ethyl)-5,6-dihydro-4H-1-thia-3b,6-diazabenzo[e]cyclopenta[a]azulene-2-carboxylic acid dihydrochloride] | 10 to 100 | 10 to 100 |
| O=C(O)c1cc2c(s1)c(C1CCCCC1)c1n2CCN(CCN2CCCCC2)c2ccccc2-1 [Example 8, 11-cyclohexyl-6-[2-(piperidin-1-yl)ethyl]-5,6-dihydro-4H-1-thia-3b,6-diazabenzo[e]cyclopenta[a]azulene-2-carboxylic acid dihydrochloride] | 10 to 100 | 10 to 100 |
| COCC[C@@H]1CCCN(CCN2CCn3c(c(C4CCCCC4)c4sc(C(=O)O)cc43)-c3ccc(C)cc32)C1 [Example 27, (S)-11-cyclohexyl-6-{2-[3-(2-methoxyethyl)piperidin-1-yl]ethyl}-8-methyl-5,6-dihydro-4H-1-thia-3b,6-diazabenzo[e]cyclopenta[a]azulene-2-carboxylic acid dihydrochloride] | 10 to 100 | 10 to 100 |
| CC(C)(C)OC(=O)N1CCN(CCN2CCn3c(c(C4CCCCC4)c4sc(C(=O)O)cc43)-c3ccc(Cl)cc32)CC1 [Example 34, 6-[2-(4-tert-butoxycarbonylpiperazin-1-yl)ethyl]-8-chloro-11-cyclohexyl-5,6-dihydro-4H-1-thia-3b,6-diazabenzo[e]cyclopenta[a]azulene-2-carboxylic acid hydrochloride] | 10 to 100 | 10 to 100 |
| CS(=O)(=O)c1ccc(N2CCOCC2)c(COc2ccc3c(c2)OCCn2c-3c(C3CCCCC3)c3sc(C(=O)O)cc32)c1 [Example 3, 11-cyclohexyl-8-[5-methanesulfonyl-2-(morpholin-4-yl)benzyloxy]-4,5-dihydro-6-oxa-1-thia-3b-azabenzo[e]cyclopenta[a]azulene-2-carboxylic acid] | 10 to 100 | < 10 |
| O=C(O)c1cc2c(s1)c(C1CCCCC1)c1n2CCN(CCN2CCCCCCC2)c2cc(Cl)ccc2-1 [Example 29, 6-[2-(azocan-1-yl)ethyl]-8-chloro-11-cyclohexyl-5,6-dihydro-4H-1-thia-3b,6-diazabenzo[e]cyclopenta[a]azulene-2-carboxylic acid dihydrochloride] | 10 to 100 | 10 to 100 |
